Data taken from US20260159474A1, “Aminoindane Compounds and Compositions and Methods of Their Therapeutic Use” (Solvonis Therapeutics Ireland Holdings Limited, priority 2021, published 2026).
Read-outs that look alike come from different tables or passages of the source.

How the values were obtained:
Experiment in all cases: CYP450 inhibition, fluorescent probe substrate
Format in all cases: in vitro ADME
[1] = molecular target: T1, CYP2D6 (Homo sapiens, UniProt P10635)
T1 construct: host or cells: recombinant microsomes
Protocol: (§1) Methods: Recombinant human CYP450 isoenzymes were used to metabolize pro-fluorescent probe substrates to fluorescent products. IC50 values determined from the effect of test compounds on the metabolism of these probe substrates were then used to determine inhibitory potency against CYP450 isoforms. The chemical reagents included:
(§2) The test system was based on a three-step procedure with a “mix and read” format, where reaction and reading were performed at 37° C. The assays described herein measure in vitro inhibitory effects (pIC50) of compounds on the human P450 isoforms (1A2, 2B6, 2C8, 2C9, 2C19, 2D6, 3A4) expressed in recombinant microsomes. Pro-fluorescent probe substrates were metabolized to fluorescent products by the enzymes. Fluorescence was measured in kinetic mode (1 read/minutes for 10 minutes), and the fluorescence rate was calculated.
(§3) Inhibition of the fluorescent signal resulting from P450 activation indicated inhibitory activity and facilitated calculation of the compound pIC50. A quality check was included in each compound plate, wherein the signal window was monitored by performing Z′ calculations ([…] ) and the antagonist potency of internal standards was within the pIC50±2SD range. Concentration response curves (CRCs) of compounds were run on two different test occasions (n 2) by preparing serial dilutions from the same compound stock solution.
(§4) To prepare the compound plate, test compounds serial dilutions 1 to 3 were performed from a 10 mM stock solution in DMSO by Biomek FX to generate 10 point CRC with the highest concentrations in columns 3 and 13.
(§5) 100% DMSO was placed in columns 1 and 2 and used for assay low controls. CYP inhibitor (10 mM miconazole solution in DMSO) was placed in columns 23 and 24 and served as an assay high controls. 1 μL copy plates were then stamped into V-bottom drug plates at a concentration that is 200 fold the final assay concentration. The copy plates were diluted prior to the experiment with assay buffer to reach 4 times the final assay concentration (2% w/v DMSO).
(§6) A reference compound (e.g., miconazole) was included in each compound plate in row A, column 3 and 13. The reference compound was diluted and stamped together with test compounds. The final concentrations of the 10 point CRCs of test compounds in the assay plate were 5.00E-05; 1.67E-05; 5.56E-06; 1.85E-06; 6.17E-07; 2.06E-07; 6.86E-08; 2.29E-08; 7.62E-09 and 2.54E-09, respectively. All solutions were prepared immediately before the assay.
Microsomes were added to the buffer prior to the substrate addition. The solution was carefully mixed without vortexing. 30 μL/well of the mixture was then transferred to the assay plate (384-well black plate) using a 16-channel pipette. For each P450 isoformn, a separate plate was prepared and labeled with a barcode. For fluorescence measurement, 10 μL/well of the test compounds were transferred from the compound plate to the assay plate using Biomek FX and the appropriate protocol. The assay plate was then incubated at 37° C. for 10 minutes on a shaker to allow for the interaction between compounds and enzymes.
10 μL/well of the cofactor was then added to the assay plate using the Multidrop before placing the assay plate in the plate reader EnVision to measure fluorescence. The overall final DMSO concentration for the assay was 0.5%. Plates were read every minute for 10 minutes, according to a P450 isoform specific protocol, as shown below.
(§7) Regarding data analysis, inhibition is expressed as a percentage. […] Curve fitting and pIC50 estimations are carried out using a four-parameter logistic model in Morphit.

[2] = molecular target: T2, CYP2B6 (Homo sapiens, UniProt P20813)
T2 construct: purchased Life Technologies P3028; host or cells: Baculosomes
T2 sequence (P20813 1-491): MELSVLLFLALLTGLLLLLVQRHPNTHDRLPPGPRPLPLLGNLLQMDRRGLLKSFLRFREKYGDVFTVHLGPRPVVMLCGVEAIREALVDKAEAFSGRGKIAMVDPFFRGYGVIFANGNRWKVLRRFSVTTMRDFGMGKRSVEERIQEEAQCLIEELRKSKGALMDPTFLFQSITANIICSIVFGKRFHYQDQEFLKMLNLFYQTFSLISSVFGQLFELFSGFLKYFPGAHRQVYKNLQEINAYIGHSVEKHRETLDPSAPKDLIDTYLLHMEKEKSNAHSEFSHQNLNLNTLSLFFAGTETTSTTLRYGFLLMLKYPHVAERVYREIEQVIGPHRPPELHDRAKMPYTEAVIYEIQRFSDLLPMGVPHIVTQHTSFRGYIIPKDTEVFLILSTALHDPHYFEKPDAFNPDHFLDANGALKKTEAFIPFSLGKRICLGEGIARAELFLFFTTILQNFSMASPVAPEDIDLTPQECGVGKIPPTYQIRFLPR
Protocol: as §1, §2, §3, §4, §5, §6
(§8) The CYP3A4 and CYP2C8 were assayed using the Vivid CYP3A4 Baculosomes, CYP2C8 Baculosomes and Vivid DBOMF Substrate (Life Technologies, cat. P2377, PV6138 and P2974 respectively), while 2B6 is tested by Vivid CYP2B6 Baculosomes and Vivid BOMCC Substrate (Life Technologies, cat. P3028 and P2975). Test compounds were prepared as specified above.
(§9) The assay plate was prepared by preparing pre-mix by diluting P450 Baculosomes Plus Reagent and Vivid Regeneration System in 1× Vivid CYP450 Reaction Buffer (Potassium Phosphate Buffer, 100 mM, pH 8.0). Briefly, 8 μL/ml of P450 Baculosomes Plus Reagent and 16 μL/ml of Vivid Regeneration System were added to achieve the appropriate final concentrations and then mixed by inversion. 30 μL of pre-mix were dispensed into each well of a black, 384-well plate.
(§10) Next, 10 μL/well from the compound plate was added and incubated for 10 minutes at 37° C. on a plate shaker, while a mixture of Vivid Substrate and Vivid NADP+ in Vivid CYP450 Reaction Buffer was prepared. The reaction was initiated by adding 10 μL/well of the Vivid Substrate and NADP+ mixture, before transferring the plate into the fluorescent plate reader (immediately, within 2 minutes), and fluorescence was monitored every minute for 10 minutes according to the specific protocol.
as §7

[3] = molecular target: T3, CYP2C8 (Homo sapiens, UniProt P10632)
T3 construct: purchased Life Technologies PV6138; host or cells: Baculosomes
T3 sequence (P10632 1-490): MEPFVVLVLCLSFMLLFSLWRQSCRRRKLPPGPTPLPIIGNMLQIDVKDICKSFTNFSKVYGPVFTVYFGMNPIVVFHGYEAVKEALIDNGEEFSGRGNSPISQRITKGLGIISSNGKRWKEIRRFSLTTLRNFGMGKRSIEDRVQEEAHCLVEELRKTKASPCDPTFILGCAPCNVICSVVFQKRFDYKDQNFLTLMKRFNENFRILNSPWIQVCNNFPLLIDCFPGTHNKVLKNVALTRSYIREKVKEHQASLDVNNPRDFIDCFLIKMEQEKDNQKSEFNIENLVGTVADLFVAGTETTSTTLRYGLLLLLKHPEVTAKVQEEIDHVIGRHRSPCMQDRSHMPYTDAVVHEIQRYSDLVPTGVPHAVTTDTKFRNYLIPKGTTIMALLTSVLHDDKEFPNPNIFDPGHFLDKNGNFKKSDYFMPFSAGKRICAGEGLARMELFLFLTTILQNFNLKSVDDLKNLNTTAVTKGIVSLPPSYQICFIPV
Protocol: as §1, §2, §3, §4, §5, §6, §8, §9, §10, §7

[4] = recombinant human isoenzyme, n=2, read-out: Inhibition of CYP2D6, IC50
[5] = recombinant human isoenzyme, n=2, read-out: Inhibition of CYP2B6, IC50
[6] = recombinant human isoenzyme, n=2, read-out: Inhibition of CYP2C8, IC50

T1 sequence (P10635 whole entry): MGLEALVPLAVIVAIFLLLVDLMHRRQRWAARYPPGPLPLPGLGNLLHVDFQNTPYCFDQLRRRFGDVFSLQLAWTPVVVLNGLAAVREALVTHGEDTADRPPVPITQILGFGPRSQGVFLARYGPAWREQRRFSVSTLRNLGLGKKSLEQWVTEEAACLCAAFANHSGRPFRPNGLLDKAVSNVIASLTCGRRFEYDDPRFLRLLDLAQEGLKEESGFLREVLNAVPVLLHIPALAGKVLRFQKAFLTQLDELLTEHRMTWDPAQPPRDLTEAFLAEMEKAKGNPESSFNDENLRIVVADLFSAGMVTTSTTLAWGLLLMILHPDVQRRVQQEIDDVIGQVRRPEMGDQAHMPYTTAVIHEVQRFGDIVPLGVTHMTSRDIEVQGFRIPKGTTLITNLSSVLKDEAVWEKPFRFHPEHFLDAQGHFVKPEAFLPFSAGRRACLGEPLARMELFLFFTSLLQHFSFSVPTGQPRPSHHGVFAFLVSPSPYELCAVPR

Structure (SMILES)	IC50 [1, 4] [µM]	IC50 [2, 5] [µM]	IC50 [3, 6] [µM]	IC50 [1] [µM]	IC50 [2] [µM]	IC50 [3] [µM]
COC(=O)c1cc2c(cc1OC)CC(N)C2 (stereo not drawn) [CMP-401]	> 50	> 50	> 50	–	–	–
COC(=O)COc1ccc2c(c1)CC(N)C2 (stereo not drawn) [CMP-402]	> 50	> 50	> 50	–	–	–
COC(=O)c1ccc2c(c1)CC(N)C2 (stereo not drawn) [CMP-405, 2-aminoindane-5-methylcarboxylate]	23	> 50	> 50	–	–	–
CNC(C)Cc1ccc2c(c1)OCO2 (stereo not drawn) [MDMA]	1.6	> 50	> 50	–	–	–
COc1ccc2c(c1)CC(N)C2 (stereo not drawn) [MEAI, 5-methoxy-2-aminoindane]	–	–	–	37	> 50	> 50
COc1cc2c(cc1C)CC(N)C2 (stereo not drawn) [MMAI, 5-methoxy-6-methyl-2-aminoindane]	–	–	–	33.6	> 50	> 50
